≈ marks a conversion by molar mass, not a printed value. Positions of bridges follow the written chain, without caps; N, C: chain ends. Non-standard residues stand in square brackets, D forms with d. Residues, ends and D or L forms follow the SMILES beside them. S5 = C=CCCC[C@](C)(N)C(=O)O
Tests used:
[1] = system: Klebsiella pneumoniae; assay: Antimicrobial activity against Klebsiella pneumoniae ATCC 13883 assessed as growth inhibition measured after 8 hrs incubation by standard broth dilution assay; format: functional
[2] = system: Pseudomonas aeruginosa; assay: Antimicrobial activity against Pseudomonas aeruginosa ATCC 27853 assessed as growth inhibition measured after 8 hrs incubation by standard broth dilution assay; format: functional
[3] = system: Staphylococcus aureus; assay: Antimicrobial activity against methicillin-resistant Staphylococcus aureus ATCC 43300 assessed as growth inhibition measured after 8 hrs incubation by standard broth dilution assay; format: functional
[4] = system: Streptococcus pneumoniae; assay: Antimicrobial activity against Streptococcus pneumoniae ATCC 49619 assessed as growth inhibition measured after 8 hrs incubation by standard broth dilution assay; format: functional
[5] = Hemolytic activity in BALB/c mouse red blood cells assessed as hemolysis incubated for 1 hrs; format: toxicity, cell-based, Erythrocyte; details: read-out: HD50

| SMILES | MIC [1] | MIC [2] | MIC [3] | MIC [4] | HC50 at 1 h [5] |
| --- | --- | --- | --- | --- | --- |
| CC(=O)N[C@@H](CC(C)C)C(=O)N[C@@H](CCCCN)C(=O)N[C@@H](CCCNC(=N)N)C(=O)N[C@H](C(=O)N[C@@H](Cc1c[nH]c2ccccc12)C(=O)N[C@@H](CCCCN)C(=O)N[C@@H](CCCNC(=N)N)C(=O)N[C@H](C(=O)N[C@@H](Cc1ccccc1)C(=O)N[C@@H](CCCCN)C(=O)N[C@@H](CCCCN)C(=O)N[C@@H](CC(C)C)C(=O)N[C@@H](CCCCN)C(=O)N[C@@]1(C)CCC/C=C\CCC[C@@](C)(C(=O)N[C@@H](CC(C)C)C(=O)N[C@@H](CCCCN)C(=O)N[C@@H](CCCCN)C(=O)N2CCC[C@H]2C(=O)N[C@H](C(=O)N[C@@H](CCCNC(=N)N)C(N)=O)C(C)C)NC(=O)[C@H](CCCNC(=N)N)NC(=O)[C@H](Cc2c[nH]c3ccccc23)NC(=O)[C@H](Cc2ccc(O)cc2)NC1=O)C(C)C)C(C)C (Ac-LKRVWKRVFKKLK[S5]YWR[S5]LKKPVR-NH2; staple (Z) 14-18) | 38 µg/mL (≈ 11.7 µM) | 5 µg/mL (≈ 1.54 µM) | 10.1 µg/mL (≈ 3.11 µM) | 4.7 µg/mL (≈ 1.45 µM) | 35.2 µg/mL |
| CC(=O)N[C@@H](CCCCN)C(=O)N[C@@H](CCCCN)C(=O)N[C@@H](CCCNC(=N)N)C(=O)N[C@H](C(=O)N[C@@H](Cc1c[nH]c2ccccc12)C(=O)N[C@@H](CCCCN)C(=O)N[C@@H](CCCNC(=N)N)C(=O)N[C@@]1(C)CCC/C=C\CCC[C@@](C)(C(=O)N[C@@H](CCCCN)C(=O)N[C@@]2(C)CCC/C=C\CCC[C@@](C)(C(=O)N[C@@H](CC(C)C)C(=O)N[C@@H](CCCCN)C(=O)N[C@@H](CCCCN)C(=O)N3CCC[C@H]3C(=O)N[C@H](C(=O)N[C@@H](CCCNC(=N)N)C(N)=O)C(C)C)NC(=O)[C@H](CCCNC(=N)N)NC(=O)[C@H](CCCCN)NC(=O)[C@H](Cc3ccc(O)cc3)NC2=O)NC(=O)[C@H](CC(C)C)NC(=O)[C@H](CCCCN)NC(=O)[C@H](Cc2ccccc2)NC1=O)C(C)C (Ac-KKRVWKR[S5]FKL[S5]K[S5]YKR[S5]LKKPVR-NH2; staple (Z) 8-12, 14-18) | 2.5 µg/mL (≈ 0.774 µM) | 2.6 µg/mL (≈ 0.805 µM) | 2.5 µg/mL (≈ 0.774 µM) | 4.7 µg/mL (≈ 1.46 µM) | 38.7 µg/mL |
| CC(=O)N[C@@H](CCCCN)C(=O)N[C@@H](CCCCN)C(=O)N[C@@H](CCCNC(=N)N)C(=O)N[C@H](C(=O)N[C@@H](Cc1c[nH]c2ccccc12)C(=O)N[C@@H](CCCCN)C(=O)N[C@@H](CCCNC(=N)N)C(=O)N[C@@]1(C)CCC/C=C\CCC[C@@](C)(C(=O)N[C@@H](CCCCN)C(=O)N[C@@]2(C)CCC/C=C\CCC[C@@](C)(C(=O)N[C@@H](CC(C)C)C(=O)N[C@@H](CCCCN)C(=O)N[C@@H](CCCCN)C(=O)N3CCC[C@H]3C(=O)N[C@H](C(=O)N[C@@H](CCCNC(=N)N)C(N)=O)C(C)C)NC(=O)[C@H](CCCNC(=N)N)NC(=O)[C@H](Cc3c[nH]c4ccccc34)NC(=O)[C@H](CCCCN)NC2=O)NC(=O)[C@H](CC(C)C)NC(=O)[C@H](CCCCN)NC(=O)[C@H](Cc2ccccc2)NC1=O)C(C)C (Ac-KKRVWKR[S5]FKL[S5]K[S5]KWR[S5]LKKPVR-NH2; staple (Z) 8-12, 14-18) | 38 µg/mL (≈ 11.7 µM) | 2.6 µg/mL (≈ 0.8 µM) | 2.5 µg/mL (≈ 0.769 µM) | 4.7 µg/mL (≈ 1.45 µM) | 88.4 µg/mL |
| CC(=O)N[C@@H](CC(C)C)C(=O)N[C@@H](CCCCN)C(=O)N[C@@H](CCCNC(=N)N)C(=O)N[C@H](C(=O)N[C@@H](CCCCN)C(=O)N[C@@H](CCCCN)C(=O)N[C@@H](CCCNC(=N)N)C(=O)N[C@H](C(=O)N[C@@H](Cc1ccccc1)C(=O)N[C@@H](CCCCN)C(=O)N[C@@H](CC(C)C)C(=O)N[C@@H](CC(C)C)C(=O)N[C@@H](CCCCN)C(=O)N[C@@]1(C)CCC/C=C\CCC[C@@](C)(C(=O)N[C@@H](CC(C)C)C(=O)N[C@@H](CCCCN)C(=O)N[C@@H](CCCCN)C(=O)N2CCC[C@H]2C(=O)N[C@H](C(=O)N[C@@H](CCCNC(=N)N)C(N)=O)C(C)C)NC(=O)[C@H](CCCNC(=N)N)NC(=O)[C@H](Cc2c[nH]c3ccccc23)NC(=O)[C@H](Cc2ccc(O)cc2)NC1=O)C(C)C)C(C)C (Ac-LKRVKKRVFKLLK[S5]YWR[S5]LKKPVR-NH2; staple (Z) 14-18) | 10.1 µg/mL (≈ 3.18 µM) | 5 µg/mL (≈ 1.57 µM) | 19 µg/mL (≈ 5.98 µM) | 4.7 µg/mL (≈ 1.48 µM) | 15.3 µg/mL |
| CC(=O)N[C@@H](CC(C)C)C(=O)N[C@@H](CCCCN)C(=O)N[C@@H](CCCNC(=N)N)C(=O)N[C@@H](CCCCN)C(=O)N[C@@H](Cc1c[nH]c2ccccc12)C(=O)N[C@@H](CCCCN)C(=O)N[C@@H](CCCNC(=N)N)C(=O)N[C@H](C(=O)N[C@@H](Cc1ccccc1)C(=O)N[C@@H](CCCCN)C(=O)N[C@@H](CC(C)C)C(=O)N[C@@H](CC(C)C)C(=O)N[C@@H](CCCCN)C(=O)N[C@@]1(C)CCC/C=C\CCC[C@@](C)(C(=O)N[C@@H](CC(C)C)C(=O)N[C@@H](CCCCN)C(=O)N[C@@H](CCCCN)C(=O)N2CCC[C@H]2C(=O)N[C@H](C(=O)N[C@@H](CCCNC(=N)N)C(N)=O)C(C)C)NC(=O)[C@H](CCCNC(=N)N)NC(=O)[C@H](Cc2c[nH]c3ccccc23)NC(=O)[C@H](Cc2ccc(O)cc2)NC1=O)C(C)C (Ac-LKRKWKRVFKLLK[S5]YWR[S5]LKKPVR-NH2; staple (Z) 14-18) | 10.1 µg/mL (≈ 3.1 µM) | 5 µg/mL (≈ 1.53 µM) | 4.9 µg/mL (≈ 1.5 µM) | 2.4 µg/mL (≈ 0.736 µM) | 9.9 µg/mL |
